Broadly, the half-life is the time needed for the level to fall by half in the phase considered.

In brackets after ≈: the same amount, converted by molar mass. Read-outs that look alike come from different tables or passages of the source.

The test system of data set [1] is Candida albicans (standard strain SC5314). Nature of the data set: In vitro bacteriostatic experiment (minimum in vitro antifungal concentration, MIC80). In kind it is cell-based. The method, then:
(I) Experimental method: The conventional in vitro bacteriostatic experiment method was adopted (for details, see: Antimicrob Agents Chemother 1995, 39 (5): 1169).
The fungal strain selected for this experiment was provided by the Fungal Department of Shanghai Changzheng Hospital (or purchased from the Institute of Materia Medica, Chinese Academy of Sciences).
Candida albicans (standard strain SC5314)
Preparation of bacterial suspension: The above fungi were cultured in YEPD liquid medium at 35° C. for 16 hours, activated twice, counted with a blood cell counting plate, and the bacteria concentration was adjusted to 1*10^4 to 1*10^5 cells/mL with RPM1640 liquid medium.
Preparation of drug solution: The test compound of the invention was dissolved in dimethyl sulfoxide to prepare a 0.8 mg/mL drug storage solution, and the 0.8 mg/mL drug storage solution was diluted to 8 μg/mL with RPM1640 before the experiment.
Inoculation: RPM1640 100 μL was added as a blank control in well 1 of the 96-well plate; 100 μL of the bacterial suspension was added in each of wells 3-12, 200 μL of the bacterial suspension and 2 μL of the drug solution were added in well 2 and the drug solution in wells 2-11 was diluted […], and the drug concentrations of these wells were 8, 4, 2, 1, 0.5, 0.25, 0.125, 0.0625, 0.0313, and 0.0156 μg/mL, respectively. No drug solution was added in well 12 to make positive control. The drug control was fluconazole.

The conditions of data set [2]: human, microsomes.
The next data set can be described thus: in vitro. Particulars: human, microsomes.
Setting [3] is: Candida albicans, SC5314, read-out: Minimum in vitro antifungal concentration (MIC80).

As to `[2H]C([2H])(Oc1ccc(C#Cc2ccc(C(F)(F)[C@](O)(Cn3cnnn3)c3ccc(F)cc3F)nc2)cc1)c1ccc(C#N)cc1` [Compound D2], the MIC80 in data set [1] (setting [3]) came out at 0.0156 µg/mL (≈ 0.0266 µM). For `[2H]C(Oc1ccc(C#Cc2ccc(C(F)(F)[C@](O)(Cn3cnnn3)c3ccc(F)cc3F)nc2)cc1)c1ccc(C#N)cc1` (stereo partly drawn) [Compound D1], the MIC80 in data set [1] (setting [3]) came out at 0.0156 µg/mL (≈ 0.0266 µM). Take `[2H]C([2H])(n1cnnn1)C(O)(c1ccc(F)cc1F)C(F)(F)c1ccc(C#Cc2ccc(OCc3ccc(C#N)cc3)cc2)cn1` (stereo not drawn) [Compound D3]: in data set [1] (setting [3]), the MIC80 came to 0.0313 µg/mL (≈ 0.0534 µM). On the same count and under the same terms, under `[2H]c1nnnn1CC(O)(c1ccc(F)cc1F)C(F)(F)c1ccc(C#Cc2ccc(OCc3ccc(C#N)cc3)cc2)cn1` (stereo not drawn) [Compound D5] stands 0.0156 µg/mL (≈ 0.0266 µM). Consider `Cc1ncc2n1-c1ccc(Cl)cc1C(c1ccccc1F)=NC2` [Midazolam], for which, in data set [2], the “CLint, microsome (in vitro intrinsic clearance)” value was 274 μL × min^−1 × mg^−1 proteins and the “k (clearance constant)” value was found to be 0.0548 min⁻¹. In addition, the half-life in the data set “in vitro” is 0.212 h. In the case of `N#Cc1ccc(COc2ccc(C#Cc3ccc(C(F)(F)[C@](O)(Cn4cnnn4)c4ccc(F)cc4F)nc3)cc2)cc1` [VT-1598], the MIC80 in data set [1] (setting [3]) was determined as 0.0156 µg/mL (≈ 0.0267 µM). In data set [2], the “CLint, microsome (in vitro intrinsic clearance)” value is given as 10.6 μL × min^−1 × mg^−1 proteins and the “k (clearance constant)” value was determined as 0.0053 min⁻¹. The half-life at 1 μM in the data set “in vitro” turned out to be 2.33 h. For the compound `OC(Cn1cncn1)(Cn1cncn1)c1ccc(F)cc1F` [Fluconazole], in data set [1] (Candida albicans SC5314, RPM1640 medium, 96-well dilution 8-0.0156 μg/mL, read-out: Minimum in vitro antifungal concentration (MIC80)), the MIC80 turned out to be 0.5 µg/mL (≈ 1.63 µM).

Source of the values: patent US20200317636A1, “DEUTERATED AZOLE COMPOUNDS AND PREPARATION METHOD THEREFOR AND USES THEREOF” (priority 2017, published 2020).
